# Square brackets hold non-standard residues; d marks the D form. Ends that are not written are not given here. Peptide text beside a SMILES is read from it. * marks the point of attachment. Fmoc = O=C(OCC1c2ccccc2-c2ccccc21)*; GABA = NCCCC(=O)O
# Molecular target: melittin (Apis mellifera, UniProt P01501)
# Experiment: cell-based
# Settings: read-out: IC50, inhibition of melittin (converted)
# Chain of melittin (P01501 44-69 limits assumed): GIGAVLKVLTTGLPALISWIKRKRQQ
row,Compound,IC50
1,Ac-FDIWFE-NH2 [Ac-FDIWFE-NH2],185 µM
2,Ac-FDIWFK-NH2 [Ac-FDIWFK-NH2],128 µM
3,Ac-FDIYCE-NH2 [Ac-FDIYCE-NH2],229 µM
4,Ac-FDIYFE-NH2 [Ac-FDIYFE-NH2],1050 µM
5,Ac-FIIWCE-NH2 [Ac-FIIWCE-NH2],4 µM
6,Ac-FIIWFE-NH2 [Ac-FIIWFE-NH2],6.03 µM
7,Ac-FIIWFK-NH2 [Ac-FIIWFK-NH2],1450 µM
8,Ac-FIIYCE-NH2 [Ac-FIIYCE-NH2],5.68 µM
9,Ac-FIIYFE-NH2 [Ac-FIIYFE-NH2],7.8 µM
10,Ac-FIIYFK-NH2 [Ac-FIIYFK-NH2],419 µM
11,Ac-FQIWCE-NH2 [Ac-FQIWCE-NH2],10.9 µM
12,Ac-FQIWFE-NH2 [Ac-FQIWFE-NH2],9.01 µM
13,Ac-FQIYCE-NH2 [Ac-FQIYCE-NH2],16.6 µM
14,Ac-FQIYFE-NH2 [Ac-FQIYFE-NH2],21.4 µM
15,Ac-IDIWCE-NH2 [Ac-IDIWCE-NH2],978 µM
16,Ac-IDIWCK-NH2 [Ac-IDIWCK-NH2],130 µM
17,Ac-IDIYCE-NH2 [Ac-IDIYCE-NH2],361 µM
18,Ac-IDIYFE-NH2 [Ac-IDIYFE-NH2],355 µM
19,Ac-IDIYFK-NH2 [Ac-IDIYFK-NH2],918 µM
20,Ac-IIIWCE-NH2 [Ac-IIIWCE-NH2],5.51 µM
21,Ac-IIIWFE-NH2 [Ac-IIIWFE-NH2],6.27 µM
22,Ac-IIIYCE-NH2 [Ac-IIIYCE-NH2],15.1 µM
23,Ac-IIIYFE-NH2 [Ac-IIIYFE-NH2],5.85 µM
24,Ac-IQIWCE-NH2 [Ac-IQIWCE-NH2],6.73 µM

row,Compound,IC50
1,Ac-IQIWFE-NH2 [Ac-IQIWFE-NH2],24 µM
2,Ac-IQIYCE-NH2 [Ac-IQIYCE-NH2],5.93 µM
3,Ac-IQIYCK-NH2 [Ac-IQIYCK-NH2],1310 µM
4,Ac-IQIYFE-NH2 [Ac-IQIYFE-NH2],19.9 µM
5,Ac-IVIFFA-NH2 [Ac-IVIFFA-NH2],33.3 µM
6,Ac-IVIFFC-NH2 [Ac-IVIFFC-NH2],92.1 µM
7,Ac-IVIFFD-NH2 [Ac-IVIFFD-NH2],12.6 µM
8,Ac-IVIFFE-NH2 [Ac-IVIFFE-NH2],17.3 µM
9,Ac-IVIFFF-NH2 [Ac-IVIFFF-NH2],205 µM
10,Ac-IVIFFG-NH2 [Ac-IVIFFG-NH2],29.9 µM
11,Ac-IVIFFH-NH2 [Ac-IVIFFH-NH2],36.8 µM
12,Ac-IVIFFI-NH2 [Ac-IVIFFI-NH2],105 µM
13,Ac-IVIFFK-NH2 [Ac-IVIFFK-NH2],> 310 µM
14,Ac-IVIFFL-NH2 [Ac-IVIFFL-NH2],140 µM
15,Ac-IVIFFM-NH2 [Ac-IVIFFM-NH2],25.9 µM
16,Ac-IVIFFN-NH2 [Ac-IVIFFN-NH2],22.7 µM
17,Ac-IVIFFP-NH2 [Ac-IVIFFP-NH2],49 µM
18,Ac-IVIFFQ-NH2 [Ac-IVIFFQ-NH2],32.2 µM
19,Ac-IVIFFR-NH2 [Ac-IVIFFR-NH2],> 299 µM
20,Ac-IVIFFS-NH2 [Ac-IVIFFS-NH2],27.4 µM
21,Ac-IVIFFT-NH2 [Ac-IVIFFT-NH2],30.8 µM
22,Ac-IVIFFV-NH2 [Ac-IVIFFV-NH2],38.6 µM
23,Ac-IVIFFW-NH2 [Ac-IVIFFW-NH2],18.5 µM
24,Ac-IVIFFY-NH2 [Ac-IVIFFY-NH2],24.9 µM

row,Compound,IC50
1,Ac-IVILLA-NH2 [Ac-IVILLA-NH2],22 µM
2,Ac-IVILLC-NH2 [Ac-IVILLC-NH2],> 350 µM
3,Ac-IVILLD-NH2 [Ac-IVILLD-NH2],24.8 µM
4,Ac-IVILLE-NH2 [Ac-IVILLE-NH2],10.8 µM
5,Ac-IVILLF-NH2 [Ac-IVILLF-NH2],27.7 µM
6,Ac-IVILLG-NH2 [Ac-IVILLG-NH2],25.5 µM
7,Ac-IVILLH-NH2 [Ac-IVILLH-NH2],> 334 µM
8,Ac-IVILLI-NH2 [Ac-IVILLI-NH2],35.9 µM
9,Ac-IVILLK-NH2 [Ac-IVILLK-NH2],> 338 µM
10,Ac-IVILLL-NH2 [Ac-IVILLL-NH2],123 µM
11,Ac-IVILLM-NH2 [Ac-IVILLM-NH2],27 µM
12,Ac-IVILLN-NH2 [Ac-IVILLN-NH2],17.9 µM
13,Ac-IVILLP-NH2 [Ac-IVILLP-NH2],36.7 µM
14,Ac-IVILLQ-NH2 [Ac-IVILLQ-NH2],12.2 µM
15,Ac-IVILLR-NH2 [Ac-IVILLR-NH2],> 326 µM
16,Ac-IVILLS-NH2 [Ac-IVILLS-NH2],21.5 µM
17,Ac-IVILLT-NH2 [Ac-IVILLT-NH2],25.3 µM
18,Ac-IVILLV-NH2 [Ac-IVILLV-NH2],98.6 µM
19,Ac-IVILLW-NH2 [Ac-IVILLW-NH2],6.27 µM
20,Ac-IVILLY-NH2 [Ac-IVILLY-NH2],12.9 µM
21,Ac-IVILTA-NH2 [Ac-IVILTA-NH2],19.4 µM
22,Ac-IVILTC-NH2 [Ac-IVILTC-NH2],27.1 µM
23,Ac-IVILTE-NH2 [Ac-IVILTE-NH2],33 µM
24,Ac-IVILTF-NH2 [Ac-IVILTF-NH2],13.4 µM

row,Compound,IC50
1,Ac-IVILTG-NH2 [Ac-IVILTG-NH2],33.5 µM
2,Ac-IVILTH-NH2 [Ac-IVILTH-NH2],76.1 µM
3,Ac-IVILTI-NH2 [Ac-IVILTI-NH2],> 351 µM
4,Ac-IVILTK-NH2 [Ac-IVILTK-NH2],> 344 µM
5,Ac-IVILTL-NH2 [Ac-IVILTL-NH2],14 µM
6,Ac-IVILTM-NH2 [Ac-IVILTM-NH2],12.3 µM
7,Ac-IVILTN-NH2 [Ac-IVILTN-NH2],19.6 µM
8,Ac-IVILTP-NH2 [Ac-IVILTP-NH2],70.4 µM
9,Ac-IVILTQ-NH2 [Ac-IVILTQ-NH2],15.1 µM
10,Ac-IVILTR-NH2 [Ac-IVILTR-NH2],> 331 µM
11,Ac-IVILTS-NH2 [Ac-IVILTS-NH2],52.5 µM
12,Ac-IVILTT-NH2 [Ac-IVILTT-NH2],62.9 µM
13,Ac-IVILTV-NH2 [Ac-IVILTV-NH2],30.1 µM
14,Ac-IVILTW-NH2 [Ac-IVILTW-NH2],14 µM
15,Ac-IVILTY-NH2 [Ac-IVILTY-NH2],23.6 µM
16,Ac-MILWIE-NH2 [Ac-MILWIE-NH2],13 µM
17,Ac-VIQQFV-NH2 [Ac-VIQQFV-NH2],20.7 µM
18,Ac-WIQIFI-NH2 [Ac-WIQIFI-NH2],25.6 µM
19,DDEITF-NH2 [DDEITF-NH2],1630 µM
20,NDEIVF-NH2 [NDEIVF-NH2],853 µM
21,NDEIVI-NH2 [NDEIVI-NH2],444 µM
22,NEEIVF-NH2 [NEEIVF-NH2],1210 µM
23,NEEIVI-NH2 [NEEIVI-NH2],509 µM

# System: Human red blood cells (RBCs)
# Experiment: Hemolytic activity
# Assay type: cell-based
# Settings: Tables 18-21
# Method: Each assay was carried out in 96-well culture tissue plates. Four wells per plate contain 125 μl of a non-peptide positive control (1% Triton in de-ionized water), and four wells per plate contain 125 μl of a control blank, phosphate buffered saline (PBS). The hemolytic peptide melittin was used as comparative control. The controls served to detect possible contamination and to calculate the percent hemolysis of each peptide. Human red blood cells (RBCs) were washed with PBS and centrifuged to separate them from the serum. The cells were then resuspended in PBS to a final suspension of 0.5% RBC. 125 μl of this suspension was added to the peptides and controls solution. The release of hemoglobin resulting from the cell lysis was determined by measuring the OD at 414 nm of 100 μl of the supernatant.
row,Compound,HD50 (concentration necessary to lyse 50% of the cells)
1,NCCCC[C@H](NC(=O)OCC1c2ccccc2-c2ccccc21)C(=O)N[C@@H](Cc1c[nH]c2ccccc12)C(=O)N[C@@H](Cc1ccc(O)cc1)C(=O)N[C@H](CC(N)=O)C(N)=O [(KFmoc)WYn-NH2] (Fmoc-KWY[dN]-NH2),257 µg/mL
2,CC[C@@H](C)[C@@H](NC(=O)[C@@H](CS)NC(=O)[C@H](CCCCN)NC(=O)OCC1c2ccccc2-c2ccccc21)C(=O)NCCCC(N)=O [(KFmoc)ci(gABA)-NH2] (Fmoc-K[dC][dI][GABA]-NH2),54 µg/mL
3,CC[C@@H](C)[C@@H](NC(=O)[C@@H](CS)NC(=O)[C@H](CCCCN)NC(=O)OCC1c2ccccc2-c2ccccc21)C(=O)N[C@@H](C)C(N)=O [(KFmoc)ciA-NH2] (Fmoc-K[dC][dI]A-NH2),68 µg/mL
4,CC[C@@H](C)[C@@H](NC(=O)[C@@H](CS)NC(=O)[C@H](CCCCN)NC(=O)OCC1c2ccccc2-c2ccccc21)C(=O)N[C@@H](CS)C(N)=O [(KFmoc)ciC-NH2] (Fmoc-K[dC][dI]C-NH2),400 µg/mL
5,CC[C@@H](C)[C@@H](NC(=O)[C@@H](CS)NC(=O)[C@H](CCCCN)NC(=O)OCC1c2ccccc2-c2ccccc21)C(=O)N[C@@H](Cc1ccccc1)C(N)=O [(KFmoc)ciF-NH2] (Fmoc-K[dC][dI]F-NH2),295 µg/mL
6,CC[C@@H](C)[C@@H](NC(=O)[C@@H](CS)NC(=O)[C@H](CCCCN)NC(=O)OCC1c2ccccc2-c2ccccc21)C(=O)N[C@H](C)C(N)=O [(KFmoc)cia-NH2] (Fmoc-K[dC][dI][dA]-NH2),77 µg/mL

# System: Staphylococcus aureus ATCC 29213
# Experiment: not given
# Settings: Tables 6-9
row,Compound,IC50 against S. aureus
1,NCCCC[C@H](NC(=O)OCC1c2ccccc2-c2ccccc21)C(=O)N[C@@H](Cc1c[nH]c2ccccc12)C(=O)N[C@@H](Cc1ccc(O)cc1)C(=O)N[C@H](CS)C(N)=O [(KFmoc)WYc-NH2] (Fmoc-KWY[dC]-NH2),21 µg/mL
2,NCCCC[C@H](NC(=O)OCC1c2ccccc2-c2ccccc21)C(=O)N[C@@H](Cc1c[nH]c2ccccc12)C(=O)N[C@@H](Cc1ccc(O)cc1)C(=O)N[C@H](CC(N)=O)C(N)=O [(KFmoc)WYn-NH2] (Fmoc-KWY[dN]-NH2),6 µg/mL
3,CC[C@@H](C)[C@@H](NC(=O)[C@@H](Cc1ccccc1)NC(=O)[C@H](Cc1c[nH]c2ccccc12)NC(=O)[C@H](CCCCN)NC(=O)OCC1c2ccccc2-c2ccccc21)C(N)=O [(KFmoc)Wfi-NH2] (Fmoc-KW[dF][dI]-NH2),4 µg/mL
4,NCCCC[C@H](NC(=O)OCC1c2ccccc2-c2ccccc21)C(=O)N[C@@H](Cc1c[nH]c2ccccc12)C(=O)N[C@H](Cc1ccccc1)C(=O)N[C@H](Cc1ccc(O)cc1)C(N)=O [(KFmoc)Wfy-NH2] (Fmoc-KW[dF][dY]-NH2),15 µg/mL

# Same assay, conditions: Tables 7-9, lower parts (unnatural amino acids)
row,Compound,IC50 against S. aureus
1,(KFmoc)Wf(7aHa)-NH2,7 μg/m
2,(KFmoc)Wf(Cys[ACM])-NH2,18 μg/m

# System: Streptococcus sanguis ATCC 10556
# Experiment: not given
# Settings: Tables 10-13
row,Compound,IC50 against S. sanguis
1,NCCCC[C@H](NC(=O)OCC1c2ccccc2-c2ccccc21)C(=O)N[C@@H](Cc1c[nH]c2ccccc12)C(=O)N[C@@H](Cc1ccc(O)cc1)C(=O)N[C@H](CS)C(N)=O [(KFmoc)WYc-NH2] (Fmoc-KWY[dC]-NH2),42 µg/mL
2,NCCCC[C@H](NC(=O)OCC1c2ccccc2-c2ccccc21)C(=O)N[C@@H](Cc1c[nH]c2ccccc12)C(=O)N[C@@H](Cc1ccc(O)cc1)C(=O)N[C@H](CC(N)=O)C(N)=O [(KFmoc)WYn-NH2] (Fmoc-KWY[dN]-NH2),8 µg/mL
3,CC[C@@H](C)[C@@H](NC(=O)[C@@H](Cc1ccccc1)NC(=O)[C@H](Cc1c[nH]c2ccccc12)NC(=O)[C@H](CCCCN)NC(=O)OCC1c2ccccc2-c2ccccc21)C(N)=O [(KFmoc)Wfi-NH2] (Fmoc-KW[dF][dI]-NH2),4 µg/mL
4,NCCCC[C@H](NC(=O)OCC1c2ccccc2-c2ccccc21)C(=O)N[C@@H](Cc1c[nH]c2ccccc12)C(=O)N[C@H](Cc1ccccc1)C(=O)N[C@H](Cc1ccc(O)cc1)C(N)=O [(KFmoc)Wfy-NH2] (Fmoc-KW[dF][dY]-NH2),17 µg/mL
5,CC[C@@H](C)[C@@H](NC(=O)[C@@H](CS)NC(=O)[C@H](CCCCN)NC(=O)OCC1c2ccccc2-c2ccccc21)C(=O)N[C@H](C)C(N)=O [(KFmoc)cia-NH2] (Fmoc-K[dC][dI][dA]-NH2),59 µg/mL

# Same assay, conditions: Tables 11-13, lower parts (unnatural amino acids)
row,Compound,IC50 against S. sanguis
1,(KFmoc)Wf(7aHa)-NH2,10 μg/m
2,(KFmoc)Wf(Cys[ACM])-NH2,30 μg/m
